Structures can show the parent of a compound that is named as a salt.
What was measured:
[1] = target: T1, sRAGE binding to β-amyloid (Homo sapiens, UniProt Q15109); assay: RAGE binding assay (ELISA), β-amyloid as the RAGE ligand; conditions: compounds tested in hydrochloride salt form, concentration at which 50% signal has been inhibited
T1 construct: extracellular domain can be isolated by proteolysis of RAGE to generate soluble RAGE (sRAGE) comprised of the V and C domains
How it was run: (§1)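 Ligand (500 ng/well) coated in carbonate buffer pH 9.8 overnight at 4° C and blocked with 1% BSA; test compound (10-100 μM in water, 4% DMSO co-solvent) incubated with sRAGE (6 nM FAC) 1 h at 37° C. Bound sRAGE detected by anti-sRAGE/biotin-anti-mouse/AP-streptavidin with pNPP, A405. IC50 = 50% signal inhibition.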

sRAGE binding to S100b = target: T2, sRAGE binding to S100b (Homo sapiens, UniProt Q15109); assay: RAGE binding assay (ELISA), S100b as the RAGE ligand; conditions: compounds tested in hydrochloride salt form, concentration at which 50% signal has been inhibited
T2 construct: extracellular domain can be isolated by proteolysis of RAGE to generate soluble RAGE (sRAGE) comprised of the V and C domains
How it was run: as §1

[2] = tested on: RAGE signaling in THP-1 cells; assay: Functional assay: TNF-alpha secretion by S100b-stimulated THP-1 cells; format: cell-based; conditions: Homo sapiens; THP-1 cells stimulated with bovine S100b 100 μg/mL; TNF-alpha measured by ELISA 24 hours after stimulation; read-out: EC50 for TNF expression
From the text: Previously the literature has cited that THP-1 cells in response to RAGE ligands secrete TNF alpha (Yeh C-H, et al. Diabetes. Vol. 50, June 2001, pp. 1495-1504). The following assay method may be used to identify compounds of Formula (I) or pharmaceutically acceptable salts thereof which are useful as antagonists of RAGE signaling.
The myeloid cell line, THP-1 (ATTC # TIB-202), may be cultured in RPMI-1640 media (ATCC, Cat #30-2001) supplemented with fetal bovine serum to a final concentration of 10% by volume and Penicillin-Streptomycin (Gibco, Cat #0.15140-122). Alternatively, media may be formulated using RPMI 1640 (Bio-Whitaker #12-702F) supplemented with 2 mM L-glutamine (Gibco #12381-018) adjusted to contain 1.5 g/L sodium bicarbonate (Gibco #25080-094), 4.5 g/L glucose, 10 mM HEPES (Cellgro #25-060-L1) and 1.0 mM sodium pyruvate (Gibco #11360-070) and supplemented with 0.05 mM 2-mercaptoethanol, […] fetal bovine serum, 10% per ATCC instructions. During culture, the culture cells are maintained at a density between 5×10^4 and 1×10^6 viable cells/mL. […]
The amount of TNF-alpha secreted by the THP-1 cells was measured 24 hours after the addition of the stimulant proteins to the cell culture using a commercially available ELISA kit (R&D Systems, Minneapolis, Minn. # DY210). […] The plate is read at 450 nm within 30 minutes. […]

T1 sequence (Q15109 23-342 limits assumed): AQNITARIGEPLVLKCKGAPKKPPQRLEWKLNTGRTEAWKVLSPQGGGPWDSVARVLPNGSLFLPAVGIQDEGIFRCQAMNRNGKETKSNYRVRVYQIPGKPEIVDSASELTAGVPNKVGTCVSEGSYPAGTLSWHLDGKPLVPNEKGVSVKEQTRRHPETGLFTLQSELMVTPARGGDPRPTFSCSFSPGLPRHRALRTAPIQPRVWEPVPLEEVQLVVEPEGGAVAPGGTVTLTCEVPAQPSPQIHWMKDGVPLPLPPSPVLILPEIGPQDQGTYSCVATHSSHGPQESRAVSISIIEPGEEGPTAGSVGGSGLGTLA
T2 sequence (Q15109 23-342 limits assumed): as above

Row | Compound | IC50 [1] [nM] | IC50 (sRAGE binding to S100b) [nM] | EC50 [2] [nM]
1 | CCCCc1nnc(OC2CCN(C)CC2)cc1-c1ccc(OC2CCCCC2)cc1 [Example 14, 3-Butyl-4-(4-cyclohexyloxy-phenyl)-6-(1-methyl-piperidin-4-yloxy)-pyridazine dihydrochloride] | 820 | 810 | 1260
2 | CCCCc1nnc(C(=O)N[C@@H]2CN3CCC2CC3)cc1-c1ccc(OC2CCCCC2)cc1 [Example 85, (S)-6-Butyl-5-(4-cyclohexyloxy-phenyl)-pyridazine-3-carboxylic acid (1-aza-bicyclo[2.2.2]oct-3-yl)-amide dihydrochloride] | 1970 | 1490 | –
3 | CCCCc1nnc(OC2CCN(C)CC2CO)cc1-c1ccc(OC2CCCCC2)cc1 (centres unmarked) [Example 38, {4-[6-Butyl-5-(4-cyclohexyloxy-phenyl)-pyridazin-3-yloxy]-1-methyl-piperidin-3-yl}-methanol dihydrochloride] | 2470 | 2620 | –
4 | CCCCc1nnc(C(=O)NC2(CO)CCN(C)C2)cc1-c1ccc(OC2CCCCC2)cc1 (centres unmarked) [Example 111, 6-Butyl-5-(4-cyclohexyloxy-phenyl)-pyridazine-3-carboxylic acid (3-hydroxymethyl-1-methyl-pyrrolidin-3-yl)-amide dihydrochloride] | 2920 | 2120 | –
5 | CCCCc1nnc(O[C@H]2CCN(C)C2)cc1-c1ccc(OC2CCCCC2)cc1 [Example 30, 3-Butyl-4-(4-cyclohexyloxy-phenyl)-6-((S)-1-methyl-pyrrolidin-3-yloxy)-pyridazine dihydrochloride] | 2590 | 1820 | –
6 | CCCCc1nnc(OCC2CN(C)CCO2)cc1-c1ccc(OC2CCCCC2)cc1 (centres unmarked) [Example 34, 2-[6-Butyl-5-(4-cyclohexyloxy-phenyl)-pyridazin-3-yloxymethyl]-4-methyl-morpholine dihydrochloride] | 2580 | 2930 | –
7 | CCCCc1nnc(OC2CN3CCC2CC3)cc1-c1ccc(OC2CCCCC2)cc1 (centres unmarked) [Example 26, 3-[6-Butyl-5-(4-cyclohexyloxy-phenyl)-pyridazin-3-yloxy]-1-azabicyclo[2.2.2]octane dihydrochloride] | 1900 | 2080 | –
8 | CCCCc1nnc(OC2CCN(C)CC2)cc1-c1ccc(OC2CCCCC2)c(C(C)=O)c1 [Example 66, 1-{5-[3-Butyl-6-(1-methyl-piperidin-4-yloxy)-pyridazin-4-yl]-2-cyclohexyloxy-phenyl}-ethanone] | 1830 | 1470 | –
9 | CCCCc1nnc(C(=O)N2CC[C@@H](CN(C)C)[C@@H](OC)C2)cc1-c1ccc(OC2CCCCC2)cc1 (racemic) [Example 102, (±)-cis-[6-Butyl-5-(4-cyclohexyloxy-phenyl)-pyridazin-3-yl]-((3R,4S)-4-dimethylaminomethyl-3-methoxy-piperidin-1-yl)-methanone dihydrochloride] | 1460 | 2610 | –
10 | CCCCc1nnc(OC2CCN(C)CC2)cc1-c1ccc(OCc2cccnn2)cc1 [Example 53, 3-butyl-6-(1-methyl-piperidin-4-yloxy)-4-[4-(pyridazin-3-ylmethoxy)-phenyl]-pyridazine trihydrochloride] | 2020 | 2510 | –
11 | CCCCc1nnc(C(=O)N(C2CC2)C2CCN(C)CC2)cc1-c1ccc(OC2CCCCC2)cc1 [Example 115, 6-Butyl-5-(4-cyclohexyloxy-phenyl)-pyridazine-3-carboxylic acid cyclopropyl-(1-methyl-piperidin-4-yl)-amide dihydrochloride] | 1000 | 1120 | –
12 | CCCCc1nnc(OC2CCN(C)CC2)cc1-c1ccc(OC2CCCCC2)c(C2=NC(C)(C)CO2)c1 [Example 76, 3-Butyl-4-[4-cyclohexyloxy-3-(4,4-dimethyl-4,5-dihydro-oxazol-2-yl)-phenyl]-6-(1-methyl-piperidin-4-yloxy)-pyridazine] | 6780 | 2070 | –
13 | CCCCc1nnc(OCCCN(CC)CC)cc1-c1ccc(OCc2ccccc2)cc1 [Example 4, 3-[5-(4-Benzyloxy-phenyl)-6-butyl-pyridazin-3-yloxy]-propyl}-diethyl-mine dihydrochloride] | 1240 | 1140 | –
14 | CCCCc1nnc(C(=O)NCC2CCN(C)CC2)cc1-c1ccc(OCc2ccccc2)cc1 [Example 81, 5-(4-Benzyloxy-phenyl)-6-butyl-pyridazine-3-carboxylic acid (1-methyl-piperidin-4-ylmethyl)-amide dihydrochloride] | 1540 | 1820 | –
